One assay has as its system Bacillus subtilis. The assay can be described thus: Antimicrobial activity against Bacillus subtilis at 0.5 to 256 ug/ml after 24 hrs by two-fold serial micro dilution method. The class given is functional.
Another assay deals with Candida albicans. The assay can be described thus: Antifungal activity against Candida albicans at 0.5 to 256 ug/ml after 4 days by two-fold serial micro dilution method. The class given is functional, organism-based.
The next assay relates to SMMC-7721. The assay can be described thus: Cytotoxicity against human SMMC7721 cells assessed as reduction in cell viability at 40 uM after 48 hrs by MTS assay. The class given is functional, cell-based.
The subject of another assay is Escherichia coli. The assay can be described thus: Antimicrobial activity against Escherichia coli at 0.5 to 256 ug/ml after 24 hrs by two-fold serial micro dilution method. It counts as functional.
A further assay deals with Staphylococcus aureus. The assay can be described thus: Antimicrobial activity against Staphylococcus aureus at 0.5 to 256 ug/ml after 24 hrs by two-fold serial micro dilution method. It counts as functional.
A further assay relates to A549. The assay can be described thus: Cytotoxicity against human A549 cells assessed as reduction in cell viability at 40 uM after 48 hrs by MTS assay. The class given is functional, cell-based.
Another assay deals with HL-60. The assay can be described thus: Cytotoxicity against human HL60 cells assessed as reduction in cell viability at 40 uM after 48 hrs by MTS assay. It counts as functional, cell-based.
Another assay relates to MCF7. Kind of assay: Cytotoxicity against human MCF7 cells assessed as reduction in cell viability at 40 uM after 48 hrs by MTS assay. It counts as functional, cell-based.
Another assay has as its system SW480. The assay can be described thus: Cytotoxicity against human SW480 cells assessed as reduction in cell viability at 40 uM after 48 hrs by MTS assay. The class given is functional, cell-based.

In brackets after ≈: the same amount, converted by molar mass. Activity calls are given as the source filed them. The rule behind the calls is not given here.

In ChEMBL document CHEMBL4480416, “Inducing Secondary Metabolite Production by Co-culture of the Endophytic Fungus Phoma sp. and the Symbiotic Fungus Armillaria sp” (2019) one finds Activity and MIC data, which are given here for seven molecules.

Take `CCC[C@H](O)C/C=C/[C@@H](O)CCCC(=O)OC`: the outcome in the assay with Bacillus subtilis, in the assay on Candida albicans, with SMMC-7721, in the assay with Escherichia coli, with Staphylococcus aureus and in the assay on A549 was inactive. Besides, the result in the assay with HL-60, in the assay on MCF7 and with SW480 was inactive.
On to `CCC[C@H](O)C/C=C/[C@@H](O)CCCC(=O)OCCCCCNC(C)=O`, for which the result in the assay with Bacillus subtilis, with Candida albicans, in the assay on SMMC-7721, in the assay on Escherichia coli, in the assay with Staphylococcus aureus and in the assay with A549 was inactive. Further, the outcome in the assay with HL-60, in the assay on MCF7 and in the assay with SW480 was inactive.
For `NC[C@H]1O[C@H](O[C@H]2[C@H](O)[C@@H](O[C@H]3O[C@H](CO)[C@@H](O)[C@H](N)[C@H]3O)[C@H](N)C[C@@H]2N)[C@H](O)[C@@H](O)[C@@H]1O` [KANAMYCIN], the values for the MIC in the assay on Bacillus subtilis, in the assay on Escherichia coli and in the assay with Staphylococcus aureus were 4 µg/mL (≈ 8.26 µM), 8 µg/mL (≈ 16.5 µM) and 4 µg/mL (≈ 8.26 µM), respectively.
In turn, NYSTATIN yielded a minimal inhibitory concentration (MIC) in the assay on Candida albicans of 4 µg/mL.
`CCC[C@H](O)C/C=C/[C@@H](O)CCCC(=O)OC[C@@H](O)CO`: the result in the assay with Bacillus subtilis, in the assay on Candida albicans, with SMMC-7721, in the assay with Escherichia coli, in the assay with Staphylococcus aureus and in the assay on A549 was inactive. The outcome in the assay on HL-60, in the assay with MCF7 and with SW480 was inactive.
For the molecule `CCC[C@@H](O)[C@@H]1Oc2ccccc2[C@@H]1O`, the outcome in the assay on Bacillus subtilis, with Candida albicans, with SMMC-7721, in the assay on Escherichia coli, in the assay with Staphylococcus aureus and in the assay on A549 was inactive. The result in the assay on HL-60, in the assay with MCF7 and with SW480 was inactive.
In the case of `CCCC[C@@H](O)[C@H](O)c1ccccc1O`, the outcome with Bacillus subtilis, in the assay with Candida albicans, in the assay with SMMC-7721, in the assay on Escherichia coli, in the assay on Staphylococcus aureus and in the assay with A549 was inactive. Besides, the outcome with HL-60, in the assay with MCF7 and with SW480 was inactive.
